This note sets out measurements from patent publication US20090170838A1, “Bicycloheteroaryl compounds as P2X7 modulators and uses thereof” (Renovis, Inc., priority 2005, published 2009).

The target of test [1] is T1, P2X7 receptor (Homo sapiens, UniProt Q99572).
T1 construct: host or cells: THP-1 cells differentiated with LPS and IFN-γ
T1 sequence (Q99572 1-595): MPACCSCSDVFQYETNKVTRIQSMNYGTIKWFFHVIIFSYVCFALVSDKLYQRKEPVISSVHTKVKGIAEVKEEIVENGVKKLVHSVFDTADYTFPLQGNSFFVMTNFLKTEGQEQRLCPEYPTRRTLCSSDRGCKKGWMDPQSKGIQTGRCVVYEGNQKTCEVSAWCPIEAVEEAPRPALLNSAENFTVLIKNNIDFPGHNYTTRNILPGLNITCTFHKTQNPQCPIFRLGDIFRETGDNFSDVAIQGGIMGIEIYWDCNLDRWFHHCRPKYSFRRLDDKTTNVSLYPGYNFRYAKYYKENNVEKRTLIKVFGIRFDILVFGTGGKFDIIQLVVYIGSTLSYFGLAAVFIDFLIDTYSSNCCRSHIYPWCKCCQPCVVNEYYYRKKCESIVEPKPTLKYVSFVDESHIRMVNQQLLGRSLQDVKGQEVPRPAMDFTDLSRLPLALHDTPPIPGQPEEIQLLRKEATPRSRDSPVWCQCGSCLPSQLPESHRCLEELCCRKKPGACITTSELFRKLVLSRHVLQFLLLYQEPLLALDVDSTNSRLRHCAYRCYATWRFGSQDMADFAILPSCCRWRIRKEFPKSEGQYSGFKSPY
Description: IL-1β release assay (BzATP-stimulated, LPS/IFN-γ differentiated THP-1 cells, ELISA). In kind it is cell-based. As to conditions: for inhibition at 0.3 µM: at 0.3 μM (plus symbols); for inhibition at 0.1 µM: at 0.1 μM (asterisk symbols). The gist of the method:
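THP-1 cells were differentiated 16 h with LPS and IFN-γ (100 ng/mL each), then primed 2 h with fresh LPS. Compound pretreatment lasted 30 min, followed by 250 uM BzATP for 45 min. Supernatant IL-1β was measured by ELISA, and percent inhibition was calculated from background-adjusted levels.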

Test [2] deals with T1, P2X7 receptor. Description: Pore formation (Yo-Pro 1 uptake, BzATP-stimulated differentiated THP-1 cells). In kind it is cell-based. As to conditions: for inhibition at 0.3 µM: at 0.3 μM (plus symbols); for inhibition at 0.1 µM: at 0.1 μM (asterisk symbols). The procedure: THP-1 cells (ATCC Cat # 285-IF-100) are plated in 96 well plates at a concentration of 200,000 cells per well and allowed to differentiate in RPMI-1640 media (ATCC Cat # 30-2001) containing 10% FBS, 100 IU/mL penicillin, 100 ug/mL streptomycin, 100 ng/mL LPS and 100 ng/mL IFN-γ for 16 hours. Following differentiation, the cells are pretreated with the compound of interest at the appropriate concentration for 30 minutes in RPMI-1640 media containing 100 IU/mL penicillin, 100 ug/mL streptomycin. The pretreatment media is then replaced with assay buffer (20 mM HEPES, 10 mM D-glucose, 118 mM NMDG, 5 mM KCl, 0.4 mM CaCl2) containing 5 uM Yo-Pro 1 (Molecular Probes Cat # Y3603) and the compound of interest at the appropriate concentration and the cells are incubated for an additional 10 minutes. 2′,3′-O-(4-benzoylbenzoyl)-adenosine 5′-triphosphate (Sigma Aldrich Cat# B6396) is then added to a final concentration of 40 uM and fluoroscence readings measured at 491/509 excitation/emission every minute for 50 minutes using a Tecan Safire plate reader. During this time temperature is maintained at of 37° C. Background adjusted fluorescence levels between drug treated and non-treated cells are used to calculate the percent inhibition.

Broadly, the inhibition is the drop in the measured response relative to a control, in per cent.

Take `O=C(CC12CC3CC(CC(C3)C1)C2)Nc1cccc2c(=O)n(Cc3ccc4c(c3)OCCO4)ccc12` [Compound 707]: the inhibition at 0.3 µM at P2X7 receptor [1] and at P2X7 receptor [2] was not below 75% in each case.
In the case of `O=C(CC12CC3CC(CC(C3)C1)C2)Nc1cccc2c1CCN(Cc1ccc(C(F)(F)F)cc1)C2=O` [Compound 727], the inhibition at 0.3 µM at P2X7 receptor [1] and at P2X7 receptor [2] was not below 75% each time.
Turning to `CC12CC3CC(C)(C1)CC(CC(=O)Nc1cccc4c(=O)n(Cc5ccccc5)ccc14)(C3)C2` [Compound 751], the inhibition at 0.1 µM on P2X7 receptor [1] and against P2X7 receptor [2] was 50 to 75% throughout.
On to `O=C(CC12CC3CC(CC(C3)C1)C2)Nc1cccc2c(=O)n(CCN3CCOCC3)ccc12` [Compound 780], for which the inhibition at 0.1 µM at P2X7 receptor [1] and against P2X7 receptor [2] was not below 75% each time.
With `O=C(CC12CC3CC(CC(C3)C1)C2)Nc1cccc2c(=O)n(CC3CCOCC3)ccc12` [Compound 717], the inhibition at 0.3 µM at P2X7 receptor [1] and on P2X7 receptor [2] was not below 75% throughout.
Turning to `O=C(CC12CC3CC(CC(C3)C1)C2)Nc1cccc2c(=O)n(CCc3c[nH]cn3)ccc12` [Compound 808], on P2X7 receptor [1], the inhibition at 0.1 µM was not below 75%.
As for `Cc1nn(C)c(C)c1CN1CCc2c(NC(=O)CC34CC5CC(CC(C5)C3)C4)cccc2C1=O` [Compound 729], the inhibition at 0.3 µM at P2X7 receptor [1] is not below 75%.
On P2X7 receptor [1], `O=C(CC12CC3CC(CC(C3)C1)C2)Nc1cccc2c1CCN(Cc1ccc(F)c(F)c1)C2=O` [Compound 799] showed an inhibition at 0.1 µM not below 75%.
In the case of `O=C(CC12CC3CC(CC(C3)C1)C2)Nc1cccc2c(=O)n(CC3CCCO3)ccc12` (stereo not shown) [Compound 709], the inhibition at 0.3 µM at P2X7 receptor [1] and at P2X7 receptor [2] was not below 75% in each case.
On P2X7 receptor [1], `O=C(CC12CC3CC(CC(C3)C1)C2)Nc1cccc2c(=O)n(C(CO)CO)ccc12` [Compound 826] gave an inhibition at 0.1 µM not below 75%.
For `CC(c1ccccn1)n1ccc2c(NC(=O)CC34CC5CC(CC(C5)C3)C4)cccc2c1=O` (stereo not shown) [Compound 858], at P2X7 receptor [1], the inhibition at 0.1 µM is not below 75%.
On the same count and under the same terms, the result for `Cc1cc(Cn2ccc3c(NC(=O)CC45CC6CC(C)(CC(C)(C6)C4)C5)cccc3c2=O)no1` [Compound 761] reads 50 to 75%.
Consider `O=C(CC12CC3CC(CC(C3)C1)C2)Nc1cccc2c(=O)[nH]ccc12` [Compound 804], for which the inhibition at 0.1 µM against P2X7 receptor [1] is not below 75%. Moreover, the inhibition at 0.3 µM at P2X7 receptor [2] is not below 75%.
`O=C(CC12CC3CC(CC(C3)C1)C2)Nc1cccc2c1CCN(CCCN1CCOCC1)C2=O` [Compound 876] came in with an inhibition at 0.1 µM at P2X7 receptor [1] not below 75%.
As for `CC12CC3CC(C)(C1)CC(CC(=O)Nc1cccc4c(=O)n(C(CO)CO)ccc14)(C3)C2` [Compound 895], the inhibition at 0.3 µM at P2X7 receptor [1] was not below 75%.
On the same count and under the same terms, the result for `O=C(CC12CC3CC(CC(C3)C1)C2)Nc1cccc2c(=O)n(Cc3cccnc3)ccc12` [Compound 715] reads not below 75%.
On to `O=C(CC12CC3CC(CC(C3)C1)C2)Nc1cccc2c(=O)n(Cc3ccncc3)ccc12` [Compound 716], for which, at P2X7 receptor [1], the inhibition at 0.3 µM is not below 75%.
As for `O=C(CC12CC3CC(CC(C3)C1)C2)Nc1cccc2c(=O)n(CCN3CCCC3)ccc12` [Compound 783], the inhibition at 0.1 µM against P2X7 receptor [1] was not below 75%.
Turning to `CC12CC3CC(C)(C1)CC(CC(=O)Nc1cccc4c(=O)n(CCc5c[nH]cn5)ccc14)(C3)C2` [Compound 741], at P2X7 receptor [1], the inhibition at 0.3 µM was not below 75%.
As for `O=C(CC12CC3CC(CC(C3)C1)C2)Nc1cccc2c(=O)n(CCc3ccccn3)ccc12` [Compound 785], the inhibition at 0.1 µM against P2X7 receptor [1] was 50 to 75%.
Consider `CC1CN(CCn2ccc3c(NC(=O)CC45CC6CC(CC(C6)C4)C5)cccc3c2=O)CC(C)O1` (stereo not shown) [Compound 869], for which, on P2X7 receptor [1], the inhibition at 0.1 µM was in the range of 50 to 75%.
The compound `Cn1ccc2c(NC(=O)CC34CC5CC(CC(C5)C3)C4)cccc2c1=O` [Compound 805, adamantyl-N-(2-methyl-1-oxo-1,2-dihydroisoquinolin-5-yl)acetamide] returned an inhibition at 0.1 µM against P2X7 receptor [1] not below 75%.
Still for that read-out and setting: to `CS(=O)(=O)c1ccc(Cn2ccc3c(NC(=O)CC45CC6CC(CC(C6)C4)C5)cccc3c2=O)cc1` [Compound 768] belongs 50 to 75%; to `C[C@@H](c1ccccc1)n1ccc2c(NC(=O)CC34CC5CC(C)(CC(C)(C5)C3)C4)cccc2c1=O` [Compound 818], 50 to 75%.
In the case of `CC12CC3CC(C)(C1)CC(CC(=O)Nc1cccc4c(=O)n(Cc5c(F)cccc5F)ccc14)(C3)C2` [Compound 835], at P2X7 receptor [1], the inhibition at 0.1 µM is not below 75%.
As for `Cc1cccnc1CN1CCc2c(NC(=O)CC34CC5CC(CC(C5)C3)C4)cccc2C1=O` [Compound 825], the inhibition at 0.1 µM at P2X7 receptor [1] is not below 75%.
Same read-out and setting: the result for `CCN1CCCC1Cn1ccc2c(NC(=O)CC34CC5CC(C)(CC(C)(C5)C3)C4)cccc2c1=O` (stereo not shown) [Compound 772] reads 50 to 75%.
Consider `CC12CC3CC(C)(C1)CC(CC(=O)Nc1cccc4c(=O)n(Cc5cccnc5)ccc14)(C3)C2` [Compound 756], for which, on P2X7 receptor [1], the inhibition at 0.1 µM was 50 to 75%.
In turn, `O=C(CC12CC3CC(CC(C3)C1)C2)Nc1cccc2c(=O)n(Cc3cn4ccccc4n3)ccc12` [Compound 770] gave an inhibition at 0.1 µM at P2X7 receptor [1] not below 75%.
In the case of `CC12CC3CC(C)(C1)CC(CC(=O)Nc1cccc4c1CCN(Cc1ccc5c(c1)OCCO5)C4=O)(C3)C2` [Compound 823], the inhibition at 0.1 µM against P2X7 receptor [1] was not below 75%.
The compound `NC(=O)[C@H](Cc1ccccc1)n1ccc2c(NC(=O)CC34CC5CC(CC(C5)C3)C4)cccc2c1=O` [Compound 776] returned an inhibition at 0.1 µM on P2X7 receptor [1] not below 75%.
Take `O=C(CC12CC3CC(CC(C3)C1)C2)Nc1cccc2c(=O)n(CCc3ccncc3)ccc12` [Compound 784]: at P2X7 receptor [1], the inhibition at 0.1 µM was not below 75%.
Regarding `O=C(CC12CC3CC(CC(C3)C1)C2)Nc1cccc2c1CCN(Cc1ccccc1)C2=O` [Compound 702, 2-Adamantan-1-yl-N-(2-benzyl-1-oxo-1,2,3,4-tetrahydro-isoquinolin-5-yl)-acetamide], the inhibition at 0.3 µM at P2X7 receptor [1] and at P2X7 receptor [2] was not below 75% throughout.
For the compound `C[C@@H](c1ccccc1)n1ccc2c(NC(=O)CC34CC5CC(CC(C5)C3)C4)cccc2c1=O` [Compound 720], at P2X7 receptor [1], the inhibition at 0.3 µM is not below 75%.
Compound `O=C(CC12CC3CC(CC(C3)C1)C2)Nc1cccc2c(=O)n(CCO)ccc12` [Compound 845] came in with an inhibition at 0.1 µM against P2X7 receptor [1] not below 75%.
